Results: BindingDB's records for patent US12435087 (Cellarity, 2025)

Biological target: T1, DCN1-like protein 1 (Homo sapiens, UniProt Q96GG9)
Test: TR-FRET Assay (1 hour)
Procedure: (§1) The DCN1 protein was biotinylated (EZ sulfo-NHS-LC-biotin; Thermofisher) for labeling with streptavidin terbium (Tb) cryptate in the reaction. The probe was changed to a non-covalent DCN1 inhibitor labeled with carboxyfluorescein (FAM; Zhou et al., Nat Commun. 2017; 8: 1150. Doi: 10.1038/s41467-017-01243-7). Buffer conditions were modified to enhance protein stability by exchanging Tween20 for TritonX and increasing NaCl to 200 mM. The compounds were screened against 5 nM DCN1 and 20 nM FAM-probe or 0.31 nM DCN1 and 900 nM total probe (100 nM FAM-labeled plus 800 nM unlabeled). The TR-FRET ratio between Tb-DCN1 and the FAM-labeled probe was measured in a 384-well opti-plate (Perkin Elmer) using a plate reader (BMG) at 1 hour after treatment with compound (final DMSO concentration of 0.1%).

T1 sequence (Q96GG9 whole entry): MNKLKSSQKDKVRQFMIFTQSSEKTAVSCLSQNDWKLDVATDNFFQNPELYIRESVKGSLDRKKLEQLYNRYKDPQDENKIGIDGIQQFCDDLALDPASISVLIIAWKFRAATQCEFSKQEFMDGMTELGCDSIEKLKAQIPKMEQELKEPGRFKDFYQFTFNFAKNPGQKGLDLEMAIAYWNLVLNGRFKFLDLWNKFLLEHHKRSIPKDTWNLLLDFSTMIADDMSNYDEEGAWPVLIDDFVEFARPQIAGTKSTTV

For `C=CS(=O)(=O)Nc1cccc([C@H]2c3c(C)nn(-c4ccccc4)c3N(CC)C(=O)[C@@H]2NC(=O)c2cccc(C(F)(F)F)c2)c1` (racemic) [US12435087, Compound I-5], which IC50 is on record?
Its IC50 is < 200 nM.

With `C=C(CN1CCOCC1)C(=O)NCc1cccc([C@@H]2c3cnn(-c4ccccc4)c3N(CC)C(=O)[C@H]2NC(=O)c2ccn(C3CC3)n2)c1` [US12435087, Compound I-280] as the compound, how does the IC50 read?
Its IC50 is < 200 nM.

`CCN1C(=O)[C@@H](NC(=O)c2nccc(C(F)(F)F)n2)[C@H](c2cccc(C(=O)N3C[C@H](F)C[C@H]3C#N)c2)c2cnn(-c3ccccc3)c21` [US12435087, Compound I-350] was tested. Which IC50 did it give?
Its IC50 is 1000 to 3000 nM.

`C=C(CN(C)C1COC1)C(=O)NCc1cccc([C@@H]2c3cnn(-c4ccccc4)c3N(CC)C(=O)[C@H]2NC(=O)c2ccn(C(F)(F)F)n2)c1` [US12435087, Compound I-378] was tested. Which IC50 did it give?
Its IC50 is < 200 nM.

Biological target: T1, DCN1-like protein 1
Test: TR-FRET Assay (24 hour)
Procedure: as §1, with “24 hrs” for “1 hour”

`CCN1C(=O)[C@H](NC(=O)c2cccc(C(F)(F)F)c2)[C@@H](c2cccc(NC(=O)/C=C/CN(C)C)c2)c2c(C)nn(-c3ccccc3)c21` (racemic) [US12435087, Compound I-38] was tested. Which IC50 did it give?
The IC50 was < 200 nM.

For `C=C(CN(C)C1COC1)C(=O)N(C)Cc1cccc([C@@H]2c3cnn(-c4ccccc4)c3N(CC)C(=O)[C@H]2NC(=O)c2ccn(C3CC3)n2)c1` [US12435087, Compound I-239], which IC50 is on record?
Its IC50 is < 200 nM.

Which IC50 does the source give for `C=C(CN(C)C1COC1)C(=O)N(C)Cc1cccc([C@@H]2c3cnn(-c4ccccc4)c3N(CC)C(=O)[C@H]2NC(=O)c2nccc(C(F)(F)F)n2)c1` [US12435087, Compound I-254] here?
The IC50 was < 200 nM.

With `C=C(CN1CC2CC(C1)O2)C(=O)N(C)Cc1cccc([C@@H]2c3cnn(-c4ccccc4)c3N(CC)C(=O)[C@H]2NC(=O)c2ccn(C3CC3)n2)c1` [US12435087, Compound I-258] as the compound, how does the IC50 read?
The IC50 was < 200 nM.
